# In US20040224995A1 (University of North Texas Health Science Center at Fort …, priority 2003, published 2004):
# Tested on: HT-22 cells
# Experiment: HT-22 cell viability during BSO exposure
# Format: cell-based, mouse
# Protocol: The in vitro model used for oxidative cell death was based upon glutamate, hydrogen peroxide, and buthionine sulfoximine (“BSO”) administration to HT-22 mouse hippocampal, C6 rat glioma, and RGC-5 retinal ganglion cell lines. The ease that the above cell lines are cultured is well known in the art of cell culture. Additionally, these cell lines are suitable for screening a various number of compounds described in the present invention.
# Although not wanting to be bound by theory, the toxicity of glutamate in HT-22 (32) and C6 glioma (33) cell lines is mediated through oxidative stress. HT-22 cells lack ionotropic N-methyl-D-aspartate (“NMDA”) glutamate receptors, and the glutamate-induced cell death appears to occur via a slow onset oxidative stress (32,34,35). Glutamate blocks cystine uptake by inhibiting the glutamate/cystine antiporter in both HT-22 (32) and C6 glioma (33) cell lines. […] In some of the experiments, the viability of cells was determined using 2.5 μM calcein AM assay in phosphate-buffered saline (PBS 1×). After 25 minutes of incubation, live cells were distinguished by the presence of intracellular esterase activity, which cleaves the calcein AM dye, producing a bright green fluorescence, as shown in FIG. 22. Viability was measured in Relative Fluorescent Units (“RFU”), and expressed as percentage of vehicle-treated control values. […]
compound,measurement,value
Cc1c(C)c2c(c(C)c1O)CCC(C)(COc1ccc(CC3SC(=O)NC3=O)cc1)O2 (stereo not shown) [troglitazone],protection against BSO,protected
